Laboratory results taken from ChEMBL document CHEMBL1123145, “Synthesis of pyrrolizidine alkaloids indicine, intermedine, lycopsamine, and analogues and their N-oxides. Potential antitumor agents” (1985).

What was measured:
Assay type in all cases: functional, Mus musculus
[1] = tested on: P388; assay: Survival rate of the animals determined for antitumor activity against P388 Lymphocytic Leukemia system at a dose of 35 mg/kg
[2] = tested on: P388; assay: Number of Survivors determined for antitumor activity against P388 Lymphocytic Leukemia system on day 5 at a dose of 70 mg/kg(6 out of 6)
[3] = tested on: P388; assay: Weight difference observed in survivors treated for antitumor activity against P388 Lymphocytic Leukemia system at a dose of 8.75 mg/kg
[4] = tested on: P388; assay: Weight difference observed in survivors treated for antitumor activity against P388 Lymphocytic Leukemia system at a dose of 35 mg/kg
[5] = tested on: P388; assay: Survival rate of the animals determined for antitumor activity against P388 Lymphocytic Leukemia system at a dose of 17.5 mg/kg
[6] = tested on: P388; assay: Survival rate of the animals determined for antitumor activity against P388 Lymphocytic Leukemia system at a dose of 70 mg/kg
[7] = tested on: P388; assay: Weight difference observed in survivors treated for antitumor activity against P388 Lymphocytic Leukemia system at a dose of 17.5 mg/kg
[8] = tested on: P388; assay: Number of Survivors determined for antitumor activity against P388 Lymphocytic Leukemia system on day 5 at a dose of 35 mg/kg (6 out of 6)
[9] = tested on: P388; assay: Weight difference observed in survivors treated for antitumor activity against P388 Lymphocytic Leukemia system at a dose of 70 mg/kg
[10] = tested on: P388; assay: Survival rate of the animals determined for antitumor activity against P388 Lymphocytic Leukemia system at a dose of 8.75 mg/kg
[11] = tested on: P388; assay: Number of Survivors determined for antitumor activity against P388 Lymphocytic Leukemia system on day 5 at a dose of 8.75 mg/kg(6 out of 6)
[12] = tested on: P388; assay: Number of Survivors determined for antitumor activity against P388 Lymphocytic Leukemia system on day 5 at a dose of 17.5 mg/kg (6 out of 6)
[13] = tested on: P388; assay: Weight difference observed in survivors treated for antitumor activity against P388 Lymphocytic Leukemia system at a dose of 96 mg/kg
[14] = tested on: P388; assay: Survival rate of the animals determined for antitumor activity against P388 Lymphocytic Leukemia system at a dose of 24 mg/kg
[15] = tested on: P388; assay: Weight difference observed in survivors treated for antitumor activity against P388 Lymphocytic Leukemia system at a dose of 48 mg/kg
[16] = tested on: P388; assay: Survival rate of the animals determined for antitumor activity against P388 Lymphocytic Leukemia system at a dose of 192 mg/kg
[17] = tested on: P388; assay: Survival rate of the animals determined for antitumor activity against P388 Lymphocytic Leukemia system at a dose of 96 mg/kg
[18] = tested on: P388; assay: Survival rate of the animals determined for antitumor activity against P388 Lymphocytic Leukemia system at a dose of 48 mg/kg
[19] = tested on: P388; assay: Weight difference observed in survivors treated for antitumor activity against P388 Lymphocytic Leukemia system at a dose of 24 mg/kg

Row | Compound | T/C [1] [%] | Survivors [2] | T-C [3] | T-C [4] | T/C [5] [%] | T/C [6] [%] | T-C [7] | Survivors [8] | T-C [9] | T/C [10] [%] | Survivors [11] | Survivors [12] | T-C [13] | T/C [14] [%] | T-C [15] | T/C [16] [%] | T/C [17] [%] | T/C [18] [%] | T-C [19]
1 | O=C(OCC1=CC[N+]2([O-])CC[C@@H](O)C12)c1ccccc1 (some centres undefined) | 109 | 6 | -0.4 | -0.1 | 110 | 118 | -0.7 | 6 | -1 | 107 | 6 | 6 | – | – | – | – | – | – | –
2 | CC(C)C(O)(C(=O)OCC1=CC[N+]2([O-])CC[C@@H](O)C12)C(C)O (stereo in doubt; form 1) | – | – | – | – | – | – | – | – | – | – | – | – | -0.3 | 107 | -0.6 | 123 | 114 | 114 | 0
